# Key:
# [1] = Vitamin B12 absorption (plasma PK) after dosing Sprague-Dawley rats; format: in vivo; conditions: male rats
# Experimental: Tablets with four types of different ingredients were made as follows: (1) 8.8 mg of vitamin B12, 35 mg of SNAC were weighed, thoroughly mixed and made into a tablet for dosing on rat; (2) 8.8 mg of vitamin B12, 35 mg of SNAC and 5 mg of Capmul PG-8 were weighed, thoroughly mixed and made into a tablet; (3) 8.8 mg of vitamin B12, 35 mg of SNAC and 0.9 mg of Providone were weighed, thoroughly mixed and made into a tablet. Each of the four processes was repeated to produce more tablets.
# Male Sprague-Dawley rats (325-350 g) were dosed with vitamin B12 intravenously (0.5 mg/kg) alone, or orally with the tablets made in Example 4 at a dose of 50 mg/kg vitamin B12 alone or in combination with SNAC at 200 mg/kg. Blood samples were collected at 0, 3, 10, 20, 30, 60, 120, 240 and 360 minutes post dosing. Plasma samples were analyzed for B12 by RIA. The model independent PK metrics obtained following B12-SNAC combination were compared to those obtained following B12 alone.
# [2] = Serum cyanocobalamin pharmacokinetics after dosing human subjects; format: in vivo; conditions: healthy male subjects, fasted, single intravenous dose 1 mg cyanocobalamin, 4 subjects
# Experimental: Sixteen healthy male subjects were randomized to receive one of the following treatments: • (1) Treatment B: a single oral dose of cyanocobalamin/SNAC (5 mg cyanocobalamin/100 mg SNAC) administered in the fasted state as a tablet. (6 subjects); • (2) Treatment C: a single oral dose of cyanocobalamin alone (5 mg cyanocobalamin, VitaLabs, commercial) administered in the fasted state as a tablet. (6 subjects). • (3) Treatment D: a single intravenous dose of cyanocobalamin (1 mg cyanocobalamin) administered in the fasted state. (4 subjects). Each subject received a 1 mL intravenous injection of a 1 mg/mL (1000 μg/mL) solution resulting in a total dose of 1 mg cyanocobalamin.
# The subjects were fasted overnight prior to dosing and had no liquids (including water) consumption for at least one hour before and after dosing. The oral forms of cyanocobalamin/SNAC tablets were administered in a single dose as tablets with 50 mL of plain water. Twenty-five blood samples were drawn for cyanocobalamin analyses at the following time points: within 30 minutes pre-dose and at Minutes 2, 5, 10, 20, 30, 40, 50, and at Hours 1, 1.5, 2, 3, 4, 5, 6, 7, 8, 9, 10, 11, 12, 14, 16, 20 and 24 post-dose.
# Pharmacokinetic metrics was obtained following a model independent pharmacokinetic analysis of individual cyanocobalamin concentrations. Descriptive statistics was used to summarize the results.
# [3] = IV, 0.5 mg/kg vitamin B12, N = 5
# [4] = PO tablet, 50 mg/kg vitamin B12 (alone or with 200 mg/kg SNAC), N = 5
"AUC Mean [1, 3]","Tmax Mean [1, 3]","Cmax Mean ([1]; IV, 0.5 mg/kg vitamin B12, plasma B12 by RIA, N = 5)","AUC Mean [1, 4]","Tmax Mean [1, 4]","Cmax Mean ([1]; PO tablet, 50 mg/kg vitamin B12 (alone or with 200 mg/kg SNAC), plasma B12 by RIA, N = 5)","Mean Bioavailability ([1]; PO tablet, 50 mg/kg vitamin B12 (alone or with 200 mg/kg SNAC), versus IV)",Mean B12 peak concentration (Cmax) [2],mean AUClast (0-24) [2],Substance
65.84 µg·min/mL,4.4 min,2150 ng/mL,28.72 µg·min/mL,52 min,140 ng/mL,0.42%,,,Vitamin B12
,,,,,,,221.287 ± 80.248 ng/mL,215.391 ± 44.602 ng·h/mL,cyanocobalamin

# — patent US8557792B2, “Method of treating vitamin B12 deficiency” (priority 2007, dated 2013)
